In the test the target is T1, FXR (Homo sapiens, UniProt Q96RI1).
T1 construct: expressed in transfected cells; host or cells: CV-1 cells
T1 sequence (Q96RI1 1-486): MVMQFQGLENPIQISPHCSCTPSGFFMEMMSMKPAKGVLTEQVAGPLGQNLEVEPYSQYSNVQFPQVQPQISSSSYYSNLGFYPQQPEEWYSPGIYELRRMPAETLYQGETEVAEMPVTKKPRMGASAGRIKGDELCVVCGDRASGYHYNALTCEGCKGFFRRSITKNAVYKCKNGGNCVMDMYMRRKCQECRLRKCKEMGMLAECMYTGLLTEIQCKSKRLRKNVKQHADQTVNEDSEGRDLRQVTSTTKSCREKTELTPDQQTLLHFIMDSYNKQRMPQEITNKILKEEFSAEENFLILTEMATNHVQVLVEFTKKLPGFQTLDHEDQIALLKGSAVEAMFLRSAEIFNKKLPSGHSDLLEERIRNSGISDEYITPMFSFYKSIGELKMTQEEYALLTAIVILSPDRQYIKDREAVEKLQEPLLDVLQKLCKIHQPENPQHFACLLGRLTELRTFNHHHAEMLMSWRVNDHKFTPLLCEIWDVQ
T1 sequence (P19793 1-462 partner): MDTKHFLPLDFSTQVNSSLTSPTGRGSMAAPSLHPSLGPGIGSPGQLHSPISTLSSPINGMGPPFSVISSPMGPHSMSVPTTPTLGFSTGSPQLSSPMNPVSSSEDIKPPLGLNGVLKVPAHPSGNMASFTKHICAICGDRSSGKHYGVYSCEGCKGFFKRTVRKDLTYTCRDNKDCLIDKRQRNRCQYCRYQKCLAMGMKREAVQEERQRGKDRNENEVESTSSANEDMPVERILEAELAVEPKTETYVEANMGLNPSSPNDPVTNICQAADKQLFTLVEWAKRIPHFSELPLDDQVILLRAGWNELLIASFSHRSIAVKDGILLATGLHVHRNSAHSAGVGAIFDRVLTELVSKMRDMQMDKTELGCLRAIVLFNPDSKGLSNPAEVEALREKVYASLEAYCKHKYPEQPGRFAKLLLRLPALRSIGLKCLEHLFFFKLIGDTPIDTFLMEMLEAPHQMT
Briefly: In Vitro FXR Assay (TK): TK-ECRE-luc reporter in transfected CV-1 cells. Conditions: CV-1 cells transfected with hFXR, hRXR, 18 h incubation, luminescence. It counts as cell-based. The procedure:
Example B-2: In Vitro FXR Assay (TK)
CV-1 cells were seeded at a density of 2,000,000 cells in a T175 flask with DMEM+10% charcoal double-stripped FBS and incubated at 37° C. in 5% CO2 for 18 h (O/N).
After 18 h of incubation, the medium in the T175 flask was changed with fresh DMEM+10% charcoal super-stripped serum. In a polypropylene tube, 2500 μL OptiMEM (Life Technologies, Cat #31985-062) was combined with expression plasmids for hFXR, hRXR, TK-ECRE-luc and pCMX-YFP. The tube was then briefly vortexed and incubated at room temperature for 5 minutes. Transfection reagent (X-tremeGENE HP from Roche, Cat #06 366 236 001) was added to the OptiMEM/plasmid mixture vortexed and incubated at room temperature for 20 minutes. Following incubation, the transfection reagent/DNA mixture complex was added to cells in the T175 flask and the cells were incubated at 37° C. in 5% CO2 for 18 h (O/N).
Compounds were serially diluted in DMSO and added to transfected CV-1 cells. The cells were then incubated for 18 hrs. The next day cells were lysed and examined for luminescence.

Bounds are passed on as bounds.

The term EC50 denotes the concentration at which the effect is half-maximal. The compound `COC(=O)/C=C/c1cccc(N(Cc2ccc(-c3ccc(N(C)C)cc3)cc2)C(=O)[C@@H]2CCCC[C@H]2O)c1` (relative stereo) [13.25, trans-(E)-Methyl 3-(3-(N-((4′-(dimethylamino)-[1,1′-biphenyl]-4-yl)methyl)-2-hydroxycyclohexanecarboxamido)phenyl)acrylate] had an EC50 of 1000 to 10000 nM.
With `COC(=O)/C=C/c1cccc(N(Cc2ccc(-c3ccc(N(C)C)cc3)cc2)C(=O)[C@@H]2CCCC[C@@H]2O)c1` (relative stereo) [13.26, cis-(E)-Methyl 3-(3-(N-((4′-(dimethylamino)-[1,1′-biphenyl]-4-yl)methyl)-2-hydroxycyclohexanecarboxamido)phenyl)acrylate] the figure was 1000 to 10000 nM; with `COC(=O)/C=C/c1cccc(N(Cc2ccc(-c3ccc(N(C)C)cc3)cc2)C(=O)[C@@H]2CCC[C@H](O)C2)c1` (relative stereo) [13.27, cis-(E)-Methyl 3-(3-(N-((4′-(dimethylamino)-[1,1′-biphenyl]-4-yl)methyl)-3-hydroxycyclohexanecarboxamido)phenyl)acrylate], no more than 1000 nM.
With `COC(=O)/C=C/c1cccc(N(Cc2ccc(-c3ccc(N(C)C)cc3)cc2)C(=O)[C@@H]2CCC[C@@H](O)C2)c1` (relative stereo) [13.28, trans-(E)-Methyl 3-(3-(N-((4′-(dimethylamino)-[1,1′-biphenyl]-4-yl)methyl)-3-hydroxycyclohexanecarboxamido)phenyl)acrylate] the figure was greater than 10000 nM; with `COC(=O)/C=C/c1cccc(N(Cc2ccc(-c3ccc(N(C)C)cc3)cc2)C(=O)c2ccc(F)c(F)c2)c1` [13.1, (E)-Methyl 3-(3-(N-((4′-(dimethylamino)-[1,1′-biphenyl]-4-yl)methyl)-3,4-difluorobenzamido)phenyl)acrylate], 1000 to 10000 nM; with `COC(=O)/C=C/c1cccc(N(Cc2ccc(-c3ccc(N(C)C)cc3)cc2)C(=O)c2ccc(F)cc2)c1` [13.2, (E)-Methyl 3-(3-(N-((4′-(dimethylamino)-[1,1′-biphenyl]-4-yl)methyl)-4-fluorobenzamido)phenyl)acrylate], 1000 to 10000 nM.
With `COC(=O)/C=C/c1cccc(N(Cc2ccc(-c3ccc(N(C)C)cc3)cc2)C(=O)C2(C)CCCCC2)c1` [13.3, (E)-Methyl 3-(3-(N-((4′-(dimethylamino)-[1,1′-biphenyl]-4-yl)methyl)-1-methylcyclohexane-carboxamido)phenyl)acrylate] the figure was 1000 to 10000 nM.
For `COC(=O)/C=C/c1cc(F)cc(N(Cc2ccc(-c3ccc(N(C)C)cc3)cc2)C(=O)C2CCCCC2)c1` [13.4, (E)-Methyl 3-(3-(N-((4′-(dimethylamino)-[1,1′-biphenyl]-4-yl)methyl)cyclohexanecarboxamido)-5-fluorophenyl)acrylate], the 50% effective concentration (EC50) is no more than 1000 nM.
The value for `COC(=O)/C=C/c1cc(F)cc(N(Cc2ccc(-c3ccc(N(C)C)cc3)cc2)C(=O)C2CC3CCC2C3)c1` (centres unmarked) [13.5, (E)-Methyl 3-(3-(N-((4′-(dimethylamino)-[1,1′-biphenyl]-4-yl)methyl)bicyclo[2.2.1]heptane-2-carboxamido)-5-fluorophenyl)acrylate] was no more than 1000 nM.
With `COC(=O)/C=C/c1cccc(N(Cc2ccc(-c3ccc(N(C)C)cc3)cc2)C(=O)C2(C)CCOCC2)c1` [13.6, (E)-Methyl 3-(3-(N-((4′-(dimethylamino)-[1,1′-biphenyl]-4-yl)methyl)-4-methyltetrahydro-2H-pyran-4-carboxamido)phenyl)acrylate] the figure was 1000 to 10000 nM.
The value for `COC(=O)/C=C/c1cccc(N(Cc2ccc(-c3ccc(N(C)C)cc3)cc2)C(=O)c2ccccc2OC)c1` [13.7, (E)-Methyl 3-(3-(N-((4′-(dimethylamino)-[1,1′-biphenyl]-4-yl)methyl)-2-methoxybenzamido)phenyl)acrylate] was no more than 1000 nM; that for `COC(=O)/C=C/c1cccc(N(Cc2ccc(-c3ccc(N(C)C)cc3)cc2)C(=O)C2CCS(=O)(=O)CC2)c1` [13.8, (E)-Methyl 3-(3-(N-((4′-(dimethylamino)-[1,1′-biphenyl]-4-yl)methyl)-1,1-dioxidotetrahydro-2H-thiopyran-4-carboxamido)phenyl)acrylate] was greater than 10000 nM; that for `COC(=O)/C=C/c1cccc(N(Cc2ccc(-c3ccc(N(C)C)cc3)cc2)C(=O)C2CCSCC2)c1` [13.9, (E)-Methyl 3-(3-(N-((4′-(dimethylamino)-[1,1′-biphenyl]-4-yl)methyl)tetrahydro-2H-thiopyran-4-carboxamido)phenyl)acrylate] was no more than 1000 nM.
`COC(=O)/C=C/c1cccc(N(Cc2ccc(-c3ccc(N(C)C)cc3)cc2)C(=O)c2cccc(OC)c2)c1` [13.10, (E)-Methyl 3-(3-(N-((4′-(dimethylamino)-[1,1′-biphenyl]-4-yl)methyl)-3-methoxybenzamido)phenyl)acrylate] showed an EC50 of 1000 to 10000 nM.
Take `COC(=O)/C=C/c1cccc(N(Cc2ccc(-c3ccc(N(C)C)cc3)cc2)C(=O)C2CN(S(C)(=O)=O)C2)c1` [13.11, (E)-Methyl 3-(3-(N-((4′-(dimethylamino)-[1,1′-biphenyl]-4-yl)methyl)-1-(methylsulfonyl)azetidine-3-carboxamido)phenyl)acrylate]: the EC50 fell in the range of 1000 to 10000 nM.
The value for `COC(=O)/C=C/c1cccc(N(Cc2ccc(-c3ccc(N(C)C)cc3)cc2)C(=O)c2ccc(OCCN3CCOCC3)cc2)c1` [13.12, (E)-Methyl 3-(3-(N-((4′-(dimethylamino)-[1,1′-biphenyl]-4-yl)methyl)-4-(2-morpholinoethoxy)benzamido)phenyl)acrylate] was 1000 to 10000 nM; that for `COC(=O)/C=C/c1cccc(N(Cc2ccc(-c3ccc(N(C)C)cc3)cc2)C(=O)C2CCC(SC)CC2)c1` (centres unmarked) [13.13, (E)-Methyl 3-(3-(N-((4′-(dimethylamino)-[1,1′-biphenyl]-4-yl)methyl)-4-(methylthio)cyclohexanecarboxamido)phenyl)acrylate] was 1000 to 10000 nM.
For the compound `COC(=O)/C=C/c1cccc(N(Cc2ccc(-c3ccc(N(C)C)cc3)cc2)C(=O)[C@H]2CC[C@@H](S(C)(=O)=O)CC2)c1` [13.14, cis-(E)-Methyl 3-(3-(N-((4′-(dimethylamino)-[1,1′-biphenyl]-4-yl)methyl)-4-(methylsulfonyl)cyclohexanecarboxamido)phenyl)acrylate], the half-maximal effective concentration (EC50) lay within 1000 to 10000 nM.
With `COC(=O)/C=C/c1cccc(N(Cc2ccc(-c3ccc(N(C)C)cc3)cc2)C(=O)[C@H]2CC[C@H](S(C)(=O)=O)CC2)c1` [13.15, trans-(E)-methyl 3-(3-(N-((4′-(dimethylamino)-[1,1′-biphenyl]-4-yl)methyl)-4-(methylsulfonyl)cyclohexanecarboxamido)phenyl)acrylate] the figure was 1000 to 10000 nM.
With `COC(=O)/C=C/c1cccc(N(Cc2ccc(-c3ccc(N(C)C)cc3)cc2)C(=O)[C@H]2CC[C@H](C(=O)O)CC2)c1` [13.16, trans-4-(((4′-(Dimethylamino)-[1,1′-biphenyl]-4-yl)methyl)(3-((E)-3-methoxy-3-oxoprop-1-en-1-yl)phenyl)carbamoyl) cyclohexanecarboxylic acid] the figure was no more than 1000 nM.
With `COC(=O)/C=C/c1cccc(N(Cc2ccc(-c3ccc(N(C)C)cc3)cc2)C(=O)C2CCC(=O)NC2)c1` (centres unmarked) [13.17, (E)-Methyl 3-(3-(N-((4′-(dimethylamino)-[1,1′-biphenyl]-4-yl)methyl)-6-oxopiperidine-3-carboxamido)phenyl)acrylate] the figure was 1000 to 10000 nM; with `COC(=O)/C=C/c1cccc(N(Cc2ccc(-c3ccc(N(C)C)cc3)cc2)C(=O)C2CCNC(=O)C2)c1` (centres unmarked) [13.18, (E)-Methyl 3-(3-(N-((4′-(dimethylamino)-[1,1′-biphenyl]-4-yl)methyl)-2-oxopiperidine-4-carboxamido)phenyl)acrylate], 1000 to 10000 nM; with `COC(=O)/C=C/c1cccc(N(Cc2ccc(-c3ccc(N(C)C)cc3)cc2)C(=O)C2CC[S+]([O-])CC2)c1` (centres unmarked) [13.19, (E)-Methyl 3-(3-(N-((4′-(dimethylamino)-[1,1′-biphenyl]-4-yl)methyl)-1-oxidotetrahydro-2H-thiopyran-4-carboxamido)phenyl)acrylate], 1000 to 10000 nM.
